These results are taken from US8236143B2, “Controlling chemical reactions by spectral chemistry and spectral conditioning” (GR Intellectual Reserve, LLC, priority 2002, dated 2012).

The nature of data set [1]: Sucrose solubility in sodium-lamp conditioned vs control water at room temperature (22° C.). Format: physicochemical. As to the method:
Beaker “II” was placed under another sodium lamp 12 as like Beaker “KK”; and Beaker “JJ” was placed in the same incubator as Beaker “LL”. […] Specifically, Beaker “GG” was placed under another sodium lamp 12 as like Beaker “KK” and Beaker “II”; and Becker “HH” was placed into the same incubator as Beaker “LL” and “II”.

Data set [2] in a line: Phenyl salicylate solubility in neon-lamp conditioned vs unconditioned acetone at room temperature. It counts as physicochemical. The settings on record: about 20 hours equilibration. As to the method: Acetone (about 1 ml) was pipetted into small glass test tubes and stoppers placed in the tube. Tubes were placed under a neon lam; (about 8m/cm^2) in an otherwise dark room for about 1-5 hours at about 28° C. ambient temperature. Tubes were also placed simultaneously in an incubator at 28° C. for about 1.5 hours.
Phenyl solicylate (about 3.50 grams) was added to each tube leaving a layer undissolved on the bottom of each tube. The solutions were allowed to equilibrate (about 20 hours). Solution was filtered over the crystals and 0.500 ml pipetted into fresh tubes.
After the acetone evaporated, dry weights of phenyl solicylate per ml dissolved in conditioned and unconditioned acetone were determined.

Each structure is given as a SMILES string.

Consider `OC[C@H]1O[C@@](CO)(O[C@H]2O[C@H](CO)[C@@H](O)[C@H](O)[C@H]2O)[C@@H](O)[C@@H]1O` [Sucrose], for which the “Weight (dry sucrose weight per 100 ml solution)” value stood at 49 g/100 ml in data set [1] (Beaker GG, water under sodium lamp one hour, solution at 23.5° C.); 49 g/100 ml in data set [1] (Beaker HH, control water 1 hour in incubator, solution at 23° C.); 47 g/100 ml in data set [1] (Beaker II, water under sodium lamp two hours, solution at 23.5° C.); 44 g/100 ml in data set [1] (Beaker JJ, control water 2 hours in incubator, solution at 23.5° C.); 46 g/100 ml in data set [1] (Beaker KK, water under Na lamp three hours, solution at 23.5° C.); 49 g/100 ml in data set [1] (Beaker LL, control water 3 hours in incubator, solution at 23.5° C.). Besides, the “more sucrose dissolved by conditioned water than by untreated control water” value in data set [1] (two hours exposure of water to the sodium lamp) was “about 7%”.
Turning to `O=C(Oc1ccccc1)c1ccccc1O` [phenyl salicylate], the “Average amount of phenyl salicylate dissolved” value in data set [2] (acetone conditioned under neon lamp) came out at 0.78 g/mL; in data set [2] (unconditioned acetone (incubator 28° C.)), 0.68 g/mL.
